From patent publication US10253052B2, “HBED-bisphosphonates, radiometal conjugates and their use as theranostic agents” (Five Eleven Pharma Inc., priority 2015, dated 2019)

Tests used:
[1] = In vivo biodistribution in mice; parameters: species or system normal CD-1 male mice; conditions: iv
Description: Biodistribution experiments were performed by intravenously administering ^68Ga labeled 1a-h, 2, 3, BPAMD, and [^18F]NaF into normal, healthy male CD-1 mice (25-30 g). The injection activity was 20-30 μCi/animal. […] Organs of interest were harvested, weighed, and counts of radioactivity were measured by a gamma counter. The biodistribution of each sample was calculated as a percentage of the injected dose per gram of wet tissue weight (% ID/g). Tibia and femur bones were harvested and counted as bone samples.

[2] = In vitro binding to hydroxyapatite; conditions: 20 mg hydroxyapatite in saline, 10 min at room temperature
Description: Hydroxyapatite (20 mg, Sigma-Aldrich, reagent grade powder) was incubated in isotonic saline (1 mL) for 24 h. Subsequently, either ^68Ga labeled 1a-h, 2, 3, BPAMD, or [^18F]NaF (1 μCi) was added to the hydroxyapatite suspension. After vortexing for 10 seconds, the suspension was incubated for 10 min at room temperature. The samples were then centrifuged at 10,000 rpm for 3 min and the supernatant was removed. The hydroxyapatite fraction was washed twice with saline (1 mL). Radioactivity in the combined supernatants and the hydroxyapatite fraction was measured using a gamma counter. The proportion of the ^68Ga complex binding to hydroxyapatite was determined as percent of ^68Ga absorbed to hydroxyapatite.

O=C([O-])CN(CCN(CC(=O)[O-])Cc1cc(CCC(=O)NC(P(=O)(O)O)P(=O)(O)O)ccc1[O-])Cc1cc(CCC(=O)NCC(=O)O)ccc1[O-].[68Ga+3] [[^68Ga]1c]
bone to blood ratio ([1]; 2 min): 0.7 | bone to muscle ratio ([1]; 2 min): 5 | Biodistribution: Blood ([1]; 2 min post injection): 11.7 ± 0.55 % dose/g | Biodistribution: Bone ([1]; 2 min post injection): 8.40 ± 1.32 % dose/g | Biodistribution: Brain ([1]; 2 min post injection): 0.27 ± 0.06 % dose/g | Biodistribution: Heart ([1]; 2 min post injection): 4.57 ± 0.45 % dose/g | Biodistribution: Kidney ([1]; 2 min post injection): 27.7 ± 5.46 % dose/g | Biodistribution: Liver ([1]; 2 min post injection): 4.78 ± 0.18 % dose/g | Biodistribution: Lung ([1]; 2 min post injection): 5.66 ± 0.24 % dose/g | Biodistribution: Muscle ([1]; 2 min post injection): 1.68 ± 0.11 % dose/g | Biodistribution: Pancreas ([1]; 2 min post injection): 1.99 ± 0.23 % dose/g | Biodistribution: Skin ([1]; 2 min post injection): 2.05 ± 0.16 % dose/g | Biodistribution: Spleen ([1]; 2 min post injection): 3.41 ± 0.08 % dose/g | bone to blood ratio ([1]; 30 min): 8 | bone to muscle ratio ([1]; 30 min): 49 | Biodistribution: Blood ([1]; 30 min (0.5 hr) post injection): 1.34 ± 0.32 % dose/g | Biodistribution: Bone ([1]; 30 min (0.5 hr) post injection): 11.3 ± 0.26 % dose/g | Biodistribution: Brain ([1]; 30 min (0.5 hr) post injection): 0.05 ± 0.02 % dose/g | Biodistribution: Heart ([1]; 30 min (0.5 hr) post injection): 0.49 ± 0.07 % dose/g | Biodistribution: Kidney ([1]; 30 min (0.5 hr) post injection): 2.58 ± 0.05 % dose/g | Biodistribution: Liver ([1]; 30 min (0.5 hr) post injection): 2.21 ± 0.27 % dose/g | Biodistribution: Lung ([1]; 30 min (0.5 hr) post injection): 0.84 ± 0.11 % dose/g | Biodistribution: Muscle ([1]; 30 min (0.5 hr) post injection): 0.23 ± 0.05 % dose/g | Biodistribution: Pancreas ([1]; 30 min (0.5 hr) post injection): 0.39 ± 0.05 % dose/g | Biodistribution: Skin ([1]; 30 min (0.5 hr) post injection): 0.53 ± 0.18 % dose/g | Biodistribution: Spleen ([1]; 30 min (0.5 hr) post injection): 0.97 ± 0.01 % dose/g | bone to blood ratio ([1]; 60 min): 23 | bone to muscle ratio ([1]; 60 min): 102 | Biodistribution: Blood ([1]; 60 min (1 hr) post injection): 0.64 ± 0.17 % dose/g | Biodistribution: Bone ([1]; 60 min (1 hr) post injection): 14.7 ± 0.66 % dose/g | Biodistribution: Brain ([1]; 60 min (1 hr) post injection): 0.03 ± 0.01 % dose/g | Biodistribution: Heart ([1]; 60 min (1 hr) post injection): 0.24 ± 0.08 % dose/g | Biodistribution: Kidney ([1]; 60 min (1 hr) post injection): 1.88 ± 0.10 % dose/g | Biodistribution: Liver ([1]; 60 min (1 hr) post injection): 1.85 ± 0.11 % dose/g | Biodistribution: Lung ([1]; 60 min (1 hr) post injection): 0.42 ± 0.08 % dose/g | Biodistribution: Muscle ([1]; 60 min (1 hr) post injection): 0.14 ± 0.01 % dose/g | Biodistribution: Pancreas ([1]; 60 min (1 hr) post injection): 0.23 ± 0.02 % dose/g | Biodistribution: Skin ([1]; 60 min (1 hr) post injection): 0.33 ± 0.03 % dose/g | Biodistribution: Spleen ([1]; 60 min (1 hr) post injection): 0.74 ± 0.10 % dose/g | bone to blood ratio ([1]; 120 min): 39 | bone to muscle ratio ([1]; 120 min): 103 | Biodistribution: Blood ([1]; 120 min post injection): 0.41 ± 0.07 % dose/g | Biodistribution: Bone ([1]; 120 min post injection): 16.1 ± 2.71 % dose/g | Biodistribution: Brain ([1]; 120 min post injection): 0.02 ± 0.01 % dose/g | Biodistribution: Heart ([1]; 120 min post injection): 0.19 ± 0.03 % dose/g | Biodistribution: Kidney ([1]; 120 min post injection): 2.05 ± 0.27 % dose/g | Biodistribution: Liver ([1]; 120 min post injection): 1.99 ± 0.09 % dose/g | Biodistribution: Lung ([1]; 120 min post injection): 0.31 ± 0.06 % dose/g | Biodistribution: Muscle ([1]; 120 min post injection): 0.16 ± 0.01 % dose/g | Biodistribution: Pancreas ([1]; 120 min post injection): 0.20 ± 0.03 % dose/g | Biodistribution: Skin ([1]; 120 min post injection): 0.31 ± 0.04 % dose/g | Biodistribution: Spleen ([1]; 120 min post injection): 0.71 ± 0.29 % dose/g | Hydroxyapatite Binding (%) [2]: 89.1 ± 1.0%

C[C@H](NC(=O)CCc1ccc([O-])c(CN(CCN(CC(=O)[O-])Cc2cc(CCC(=O)NC(P(=O)(O)O)P(=O)(O)O)ccc2[O-])CC(=O)[O-])c1)C(=O)O.[68Ga+3] [[^68Ga]1d]
bone to blood ratio ([1]; 2 min): 1.1 | bone to muscle ratio ([1]; 2 min): 5.9 | Biodistribution: Blood ([1]; 2 min post injection): 9.08 ± 0.58 % dose/g | Biodistribution: Bone ([1]; 2 min post injection): 10.1 ± 2.05 % dose/g | Biodistribution: Brain ([1]; 2 min post injection): 0.29 ± 0.05 % dose/g | Biodistribution: Heart ([1]; 2 min post injection): 2.99 ± 0.26 % dose/g | Biodistribution: Kidney ([1]; 2 min post injection): 25.3 ± 3.89 % dose/g | Biodistribution: Liver ([1]; 2 min post injection): 1.89 ± 0.16 % dose/g | Biodistribution: Lung ([1]; 2 min post injection): 4.83 ± 0.25 % dose/g | Biodistribution: Muscle ([1]; 2 min post injection): 1.72 ± 0.15 % dose/g | Biodistribution: Pancreas ([1]; 2 min post injection): 1.53 ± 0.14 % dose/g | Biodistribution: Skin ([1]; 2 min post injection): 2.39 ± 0.13 % dose/g | Biodistribution: Spleen ([1]; 2 min post injection): 1.72 ± 0.24 % dose/g | bone to blood ratio ([1]; 30 min): 29 | bone to muscle ratio ([1]; 30 min): 64 | Biodistribution: Blood ([1]; 30 min (0.5 hr) post injection): 0.53 ± 0.13 % dose/g | Biodistribution: Bone ([1]; 30 min (0.5 hr) post injection): 15.3 ± 1.26 % dose/g | Biodistribution: Brain ([1]; 30 min (0.5 hr) post injection): 0.03 ± 0.00 % dose/g | Biodistribution: Heart ([1]; 30 min (0.5 hr) post injection): 0.26 ± 0.06 % dose/g | Biodistribution: Kidney ([1]; 30 min (0.5 hr) post injection): 2.14 ± 0.60 % dose/g | Biodistribution: Liver ([1]; 30 min (0.5 hr) post injection): 0.26 ± 0.09 % dose/g | Biodistribution: Lung ([1]; 30 min (0.5 hr) post injection): 0.45 ± 0.10 % dose/g | Biodistribution: Muscle ([1]; 30 min (0.5 hr) post injection): 0.24 ± 0.06 % dose/g | Biodistribution: Pancreas ([1]; 30 min (0.5 hr) post injection): 0.21 ± 0.12 % dose/g | Biodistribution: Skin ([1]; 30 min (0.5 hr) post injection): 0.42 ± 0.10 % dose/g | Biodistribution: Spleen ([1]; 30 min (0.5 hr) post injection): 0.21 ± 0.07 % dose/g | bone to blood ratio ([1]; 60 min): 144 | bone to muscle ratio ([1]; 60 min): 235 | Biodistribution: Blood ([1]; 60 min (1 hr) post injection): 0.10 ± 0.01 % dose/g | Biodistribution: Bone ([1]; 60 min (1 hr) post injection): 14.7 ± 0.50 % dose/g | Biodistribution: Brain ([1]; 60 min (1 hr) post injection): 0.01 ± 0.00 % dose/g | Biodistribution: Heart ([1]; 60 min (1 hr) post injection): 0.08 ± 0.01 % dose/g | Biodistribution: Kidney ([1]; 60 min (1 hr) post injection): 1.05 ± 0.17 % dose/g | Biodistribution: Liver ([1]; 60 min (1 hr) post injection): 0.12 ± 0.01 % dose/g | Biodistribution: Lung ([1]; 60 min (1 hr) post injection): 0.17 ± 0.01 % dose/g | Biodistribution: Muscle ([1]; 60 min (1 hr) post injection): 0.06 ± 0.00 % dose/g | Biodistribution: Pancreas ([1]; 60 min (1 hr) post injection): 0.06 ± 0.01 % dose/g | Biodistribution: Skin ([1]; 60 min (1 hr) post injection): 0.13 ± 0.01 % dose/g | Biodistribution: Spleen ([1]; 60 min (1 hr) post injection): 0.06 ± 0.00 % dose/g | bone to blood ratio ([1]; 120 min): 278 | bone to muscle ratio ([1]; 120 min): 417 | Biodistribution: Blood ([1]; 120 min post injection): 0.06 ± 0.02 % dose/g | Biodistribution: Bone ([1]; 120 min post injection): 17.0 ± 1.10 % dose/g | Biodistribution: Brain ([1]; 120 min post injection): 0.00 ± 0.00 % dose/g | Biodistribution: Heart ([1]; 120 min post injection): 0.06 ± 0.01 % dose/g | Biodistribution: Kidney ([1]; 120 min post injection): 0.91 ± 0.15 % dose/g | Biodistribution: Liver ([1]; 120 min post injection): 0.10 ± 0.01 % dose/g | Biodistribution: Lung ([1]; 120 min post injection): 0.09 ± 0.02 % dose/g | Biodistribution: Muscle ([1]; 120 min post injection): 0.04 ± 0.01 % dose/g | Biodistribution: Pancreas ([1]; 120 min post injection): 0.04 ± 0.01 % dose/g | Biodistribution: Skin ([1]; 120 min post injection): 0.09 ± 0.01 % dose/g | Biodistribution: Spleen ([1]; 120 min post injection): 0.05 ± 0.01 % dose/g | Hydroxyapatite Binding (%) [2]: 95.1 ± 0.5%
